# Results: US12473324B2, “Triazine-based amphiphilic compound and use thereof” (INDUSTRY-UNIVERSITY COOPERATION FOUNDATION HANYANG …, priority 2019, dated 2025)
# Legend:
# [1] = Critical micelle concentration (CMC) by fluorescent dye diphenylhexatriene (DPH); format: physicochemical; conditions: DPH fluorescence
# Experimental: A method of measuring the CMC is not particularly limited, but a method widely known in the art may be used, and for example, the CMC may be measured by a fluorescent staining method using diphenylhexatriene (DPH).
# (§1) Specifically, the critical micelle concentrations (CMCs) were measured using a fluorescent dye, diphenylhexatriene (DPH), and the hydrodynamic radii (Rh) of micelles formed by each preparation (1.0 wt %) were determined by a dynamic light scattering (DLS) experiment. The measured results are shown in Table 1 compared to DDM which is an existing amphiphilic molecule (detergent).
# [2] = Hydrodynamic radius (Rh) of micelles by dynamic light scattering (DLS); format: physicochemical; conditions: 1.0 wt % detergent
# Experimental: A method of measuring the radius of micelle is not particularly limited, but a method widely known in the art may be used, and for example, the radius of micelle may be measured using a dynamic light scattering (DLS) experiment.
# as §1
# [3] = Solubility of detergent (Table 1); format: physicochemical
# [4] = tested on: leucine transporter (LeuT); assay: LeuT structural stability: [3H]-Leu binding by scintillation proximity assay (SPA); format: biochemical, Aquifex aeolicus; conditions: CMC+0.04 wt % or CMC+0.2 wt %, room temperature, 13-day incubation, [3H]-Leu SPA
# Experimental: Experiments were performed to measure the structural stability of the LeuT protein by TSMs, TTGs and TEMs. Each amphiphilic compound was used at a concentration of (a) CMC+0.04 wt % or (b) CMC+0.2 wt %, and the substrate binding properties of LeuT were measured using [^3H]-Leu via scintillation proximity assay (SPA). The measurement was performed at regular intervals over the course of a 13-day and 12-day incubation at room temperature, respectively.
# Specifically, a wild-type leucine transporter (LeuT) derived from the thermophilic bacterium Aquifex aeolicus was purified by a previously described method (Nature 1998, 392, 353-358 by G. Deckert et al.). LeuT was expressed in E. coli C41 (DE3) transformed with pET16b encoding the C-terminal 8×His-tagged transporter (expression plasmids were provided from Dr E. Gouaux, Vollum Institute, Portland, Oregon, USA). In summary, after a bacterial membrane was isolated and solubilized in 1 wt % DDM, the protein was bound to Ni^2+-NTA resin (Life Technologies, Denmark), and eluted in 20 mM Tris-HCl (pH 8.0), 1 mM NaCl, 199 mM KCl, 0.05% (w/v) DDM and 300 mM imidazole. Then, the purified LeuT (0.5 mg/ml) was diluted with buffers supplemented with TSMs, TTGs, TEMs or DDM at a final concentration of CMC+0.04% (w/v) or CMC+0.2% (w/v) except for DDM and imidazole in the equivalent buffer described above. Protein samples were incubated at room temperature for 13 days, centrifuged at a specified time, and protein properties were confirmed by measuring [^3H]-Leucine binding ability using SPA. SPA was performed with 5 μL of each protein sample in a buffer containing 450 mM NaCl and each of TSMs and TEMs (or DDM). The SPA reaction was performed in the presence of 20 nM [^3H]-Leucine and 1.25 mg/ml copper chelate (His-Tag) YSi beads (PerkinElmer, Denmark). Overall [^3H]-Leucine coupling to each sample was measured using a MicroBeta liquid scintillation counter (Perkin Elmer).
# [5] = biological target: T1, Salmonella typhimurium melibiose permease (MelBSt) (Salmonella typhimurium, UniProt P30878); assay: MelB extraction and thermal solubilization stability (SDS-PAGE, Western blotting); format: biochemical; conditions: 1.5 wt % detergent, 90 minutes
# T1 construct: made in house; host or cells: E. coli DW2 cells
# Experimental: Experiments were performed to measure the structural stability of Salmonella typhimurium melibiose permease (MelBSt) protein by TSMs, TTGs and TEMs. After the MelB protein was extracted from the membrane using TSMs, TTGs, TEMs or DDM, the amount and structure of the extracted protein were analyzed by SDS-PAGE and Western blotting. The concentration of the amphiphilic compound used was 1.5 wt %, the protein was extracted at 0° C. for 90 minutes and then the extracted protein was incubated at three high temperatures (45, 55, and 65° C.) for an additional 90 minutes. By measuring the amount of protein remaining in a dissolved state in an aqueous solution of the extracted protein and the heat-treated protein, we tried to evaluate the performance of both the protein extraction efficiency and stabilization ability of the compound at the same time. […]
# Specifically, Salmonella typhimurium melibiose permease (MelBSt) having a 10-His tag at the C-terminus was expressed in E. coli DW2 cells (βmelB and βlacZY) using a plasmid pK95βAHB/WT MelBSt/CH10. […] MelBSt was measured by an ImageQuant LAS 4000 Biomolecular Imager (GE Health Care Lifer Science) using a SuperSignal West Pico chemiluminescent substrate.
# BOR1-GFP fusion protein = assay: AtBOR1 thermal stability, fluorescence size exclusion chromatography (FSEC); conditions: 1% detergent, heated at 47° C. for 10 minutes
# Experimental: Fluorescence size exclusion chromatography (FSEC): BOR1 of Arabidopsis thaliana was expressed in Saccharomyces cerevisiae FGY217 cells as a fusion protein having a C-terminal GFP tag. The cells were grown in a URA medium supplemented with 0.1% glucose. Protein expression was induced by adding 2% galactose, and then the cells were cultured at 20° C. for 18 hours as previously described. The cells were collected and used to prepare a membrane. The membrane including the BOR1-GFP fusion protein was diluted as follows. […] Samples were cultured while shaking at 4° C. for 1 hour, and then insoluble materials were removed by centrifugation at 14,000 g and 4° C. for 1 hour. A supernatant including the solubilized protein sample was heated at 47° C. for 10 minutes. After additional centrifugation to remove large aggregates, a 200 μl aliquot of the sample was injected into a Superose 6 10/300 column equilibrated with 20 mm Tris (pH 7.5), 150 mm NaCl and 0.03% DDM. The GFP fluorescence of each fraction was read using an excitation wavelength of 470 nm and an emission wavelength of 512 nm.
# [6] = biological target: human β2 adrenergic receptor (β2AR) (Homo sapiens, UniProt P07550); assay: β2AR stability: [3H]-dihydroalprenolol (DHA) ligand binding assay; conditions: CMC+0.2 wt %, room temperature, 6 days, [3H]-DHA
# Experimental: Experiments were performed to measure the structural stability of the human β2 adrenergic receptor (β2AR) and G-protein-coupled receptor (GPCR) by TSMs, TTGs and TEMs. That is, a receptor purified by DDM was subjected to amphiphilic molecular exchange when diluted with a buffer solution containing only each of TSMs, TTGs and TEMs without cholesteryl hemisuccinate (CHS) or a buffer solution containing CHS and DDM. The final concentration of the amphiphilic molecule was CMC+0.2 wt %, and the ligand binding properties of the receptor were measured by binding of [^3H]-dihydroalprenolol ([^3H]-DHA). Specifically, the following method was used for a radioligand binding test. β2AR was purified using 0.1% DDM (D. M. Rosenbaum et al., Science, 2007, 318, 1266-1273.) and finally concentrated to about 10 mg/ml (about 200 μM). A master binding mixture containing 10 nM [^3H]-dihydroalprenolol (DHA) supplemented with 0.5 mg/ml BSA in 0.2% amphiphilic compounds (DDM, TSMs, TTGs or TEMs) was prepared using β2AR purified with DDM. Receptors purified with DDM, TSMs, TTGs or TEMs were incubated with 10 nM [^3H]-DHA at room temperature for 6 days. The mixture was loaded onto a G-50 column and a flow through was collected with 1 ml of a binding buffer (20 mM HEPES supplemented with 0.5 mg/ml BSA and 20×CMC each amphiphilic compound, pH 7.5, 100 mM NaCl), and filled with 15 ml of a scintillation fluid. Receptor-bound [^3H]-DHA was measured by a scintillation counter (Beckman). The binding of [^3H]-DHA is shown as a column graph.
# μ-opioid receptor (MOR) = μ-opioid receptor (MOR) (Mus musculus, UniProt P42866); assay: MOR thermal stability test (CPM dye, melting point Tm); format: biochemical; conditions: 0.5 wt % compound, CPM fluorescence, 20° C. to 65° C.
# Experimental: An N-[4-(7-diethylamino-4-methyl-3-coumarinyl)phenyl]maleimide (CPM) dye dissolved in DMSO (3 mg/ml) was diluted 40× in a buffer including 20 mM HEPES pH 7.5 and 150 mM NaCl. […] After 1 hour at room temperature, a compound was prepared at a final concentration of 0.5 wt % by diluting the receptor solution 2× in 20 mM HEPES pH 7.5, 150 mM NaCl. After […] of the diluted CPM dye was added thereto, the receptor stability of different compounds was measured by recording the fluorescence spectra (excitation 387 nm) every 5° C. from 20° C. to 65° C. while culturing at each temperature for 2 minutes. The melting point (Tm) was calculated by plotting the read value at 470 nm and fitting a non-linear regression curve using GraphPad Prism.
# human β2 adrenergic receptor (β2AR), sequence (P07550 whole entry): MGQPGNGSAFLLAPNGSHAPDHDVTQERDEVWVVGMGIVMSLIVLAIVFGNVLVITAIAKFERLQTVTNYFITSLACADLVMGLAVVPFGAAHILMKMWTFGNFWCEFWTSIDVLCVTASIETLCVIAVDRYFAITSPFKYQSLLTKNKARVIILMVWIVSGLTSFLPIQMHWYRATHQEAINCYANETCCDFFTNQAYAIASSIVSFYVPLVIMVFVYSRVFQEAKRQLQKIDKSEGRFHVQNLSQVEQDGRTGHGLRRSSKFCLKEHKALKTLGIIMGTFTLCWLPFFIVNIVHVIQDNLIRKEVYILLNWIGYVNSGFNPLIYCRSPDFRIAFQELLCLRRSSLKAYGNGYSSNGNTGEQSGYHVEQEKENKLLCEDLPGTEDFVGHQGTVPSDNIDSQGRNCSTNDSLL
# T1 sequence (P30878 whole entry): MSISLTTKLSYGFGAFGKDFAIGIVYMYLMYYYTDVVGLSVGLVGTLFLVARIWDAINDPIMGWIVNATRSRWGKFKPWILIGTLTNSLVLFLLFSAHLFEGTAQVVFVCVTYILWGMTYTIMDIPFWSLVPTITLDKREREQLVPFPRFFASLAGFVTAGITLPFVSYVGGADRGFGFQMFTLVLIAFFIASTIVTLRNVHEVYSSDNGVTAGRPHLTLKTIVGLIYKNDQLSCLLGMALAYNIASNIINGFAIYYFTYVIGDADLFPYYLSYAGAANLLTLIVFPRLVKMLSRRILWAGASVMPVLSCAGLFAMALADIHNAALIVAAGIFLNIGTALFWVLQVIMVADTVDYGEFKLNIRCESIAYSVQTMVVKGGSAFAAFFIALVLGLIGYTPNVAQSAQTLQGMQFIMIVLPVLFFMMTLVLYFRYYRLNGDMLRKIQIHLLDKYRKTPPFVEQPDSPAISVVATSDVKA
# μ-opioid receptor (MOR), sequence (P42866 whole entry): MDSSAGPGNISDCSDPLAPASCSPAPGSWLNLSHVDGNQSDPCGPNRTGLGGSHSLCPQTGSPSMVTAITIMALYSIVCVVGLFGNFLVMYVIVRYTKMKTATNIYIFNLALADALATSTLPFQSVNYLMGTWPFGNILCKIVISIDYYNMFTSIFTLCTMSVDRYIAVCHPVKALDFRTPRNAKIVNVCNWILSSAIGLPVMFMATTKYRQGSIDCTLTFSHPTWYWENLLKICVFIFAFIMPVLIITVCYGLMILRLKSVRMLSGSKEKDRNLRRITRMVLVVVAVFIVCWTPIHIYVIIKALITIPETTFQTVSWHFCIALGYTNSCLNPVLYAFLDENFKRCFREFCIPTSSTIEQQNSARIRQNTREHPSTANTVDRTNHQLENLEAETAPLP
SMILES,CMC [1] [mM],Rh (nm) [2] [nm],solubility [3] [%],LeuT substrate binding properties over incubation [4],MOR melting point (Tm) (μ-opioid receptor (MOR)) [°C],MelB protein extraction efficiency at 0° C. [5],AtBOR1 thermal stability by FSEC (protein peak vs aggregation peak) (BOR1-GFP fusion protein),β2AR long-term ligand binding retention [6]
"CCCCCCCCCCCCO[C@@H]1O[C@H](CO)[C@@H](O[C@H]2O[C@H](CO)[C@@H](O)[C@H](O)[C@H]2O)[C@H](O)[C@H]1O [DDM, n-dodecyl-β-D-maltopyranoside, reference compound]",~0.17,3.4 ± 0.03,~10,"high initial activity, but the substrate binding ability sharply decreased with the passage of time",–,high MelB protein extraction efficiency,significant reduction in the original homogeneous protein peak,–
CCCCCCCCCCCOc1nc(NC(CO[C@@H]2O[C@H](CO)[C@@H](O[C@H]3O[C@H](CO)[C@@H](O)[C@H](O)[C@H]3O)[C@H](O)[C@H]2O)CO[C@@H]2O[C@H](CO)[C@@H](O[C@H]3O[C@H](CO)[C@@H](O)[C@H](O)[C@H]3O)[C@H](O)[C@H]2O)nc(OCCCCCCCCCCC)n1 [TSM-E11],~0.002,56.2 ± 9.9,~1,–,–,–,–,better in maintaining the ligand binding ability of the receptor than DDM
CCCCCCCCCCSc1nc(NC(CO[C@@H]2O[C@H](CO)[C@@H](O)[C@H](O)[C@H]2O)(CO[C@@H]2O[C@H](CO)[C@@H](O)[C@H](O)[C@H]2O)CO[C@@H]2O[C@H](CO)[C@@H](O)[C@H](O)[C@H]2O)nc(SCCCCCCCCCC)n1 [TTG-T10],~0.006,3.6 ± 0.10,~10,best substrate binding activity,–,–,–,better in maintaining the ligand binding ability of the receptor than DDM
CCCCCCCCCSc1nc(NC(CO[C@@H]2O[C@H](CO)[C@@H](O)[C@H](O)[C@H]2O)(CO[C@@H]2O[C@H](CO)[C@@H](O)[C@H](O)[C@H]2O)CO[C@@H]2O[C@H](CO)[C@@H](O)[C@H](O)[C@H]2O)nc(SCCCCCCCCC)n1 [TTG-T9],~0.010,3.3 ± 0.11,~10,–,–,–,–,better in maintaining the ligand binding ability of the receptor than DDM
CCCCCCCCCCOc1nc(NC(CO[C@@H]2O[C@H](CO)[C@@H](O[C@H]3O[C@H](CO)[C@@H](O)[C@H](O)[C@H]3O)[C@H](O)[C@H]2O)CO[C@@H]2O[C@H](CO)[C@@H](O[C@H]3O[C@H](CO)[C@@H](O)[C@H](O)[C@H]3O)[C@H](O)[C@H]2O)nc(OCCCCCCCCCC)n1 [TSM-E10],~0.004,8.7 ± 0.7,~5,–,48.9,–,–,better in maintaining the ligand binding ability of the receptor than DDM

# Continued, in another order:
CMC [1] [mM],Rh (nm) [2] [nm],solubility [3] [%],LeuT substrate binding properties over incubation [4],MOR melting point (Tm) (μ-opioid receptor (MOR)) [°C],SMILES,MelB protein extraction efficiency at 0° C. [5],AtBOR1 thermal stability by FSEC (protein peak vs aggregation peak) (BOR1-GFP fusion protein),β2AR long-term ligand binding retention [6]
~0.004,5.1 ± 0.1,~10,best substrate binding activity,–,CCCCCCCCCSc1nc(NC(CO[C@@H]2O[C@H](CO)[C@@H](O[C@H]3O[C@H](CO)[C@@H](O)[C@H](O)[C@H]3O)[C@H](O)[C@H]2O)CO[C@@H]2O[C@H](CO)[C@@H](O[C@H]3O[C@H](CO)[C@@H](O)[C@H](O)[C@H]3O)[C@H](O)[C@H]2O)nc(SCCCCCCCCC)n1 [TSM-T9],–,–,better in maintaining the ligand binding ability of the receptor than DDM
~0.004,3.7 ± 0.09,~10,best substrate binding activity,–,CCCCCCCCCCCSc1nc(NC(CO[C@@H]2O[C@H](CO)[C@@H](O)[C@H](O)[C@H]2O)(CO[C@@H]2O[C@H](CO)[C@@H](O)[C@H](O)[C@H]2O)CO[C@@H]2O[C@H](CO)[C@@H](O)[C@H](O)[C@H]2O)nc(SCCCCCCCCCCC)n1 [TTG-T11],–,–,better in maintaining the ligand binding ability of the receptor than DDM
~0.006,4.2 ± 0.0,~10,–,–,CCCCCCCCSc1nc(NC(CO[C@@H]2O[C@H](CO)[C@@H](O[C@H]3O[C@H](CO)[C@@H](O)[C@H](O)[C@H]3O)[C@H](O)[C@H]2O)CO[C@@H]2O[C@H](CO)[C@@H](O[C@H]3O[C@H](CO)[C@@H](O)[C@H](O)[C@H]3O)[C@H](O)[C@H]2O)nc(SCCCCCCCC)n1 [TSM-T8],–,–,better in maintaining the ligand binding ability of the receptor than DDM
~0.01,3.6 ± 0.1,~10,–,–,CCCCCCCSc1nc(NC(CO[C@@H]2O[C@H](CO)[C@@H](O[C@H]3O[C@H](CO)[C@@H](O)[C@H](O)[C@H]3O)[C@H](O)[C@H]2O)CO[C@@H]2O[C@H](CO)[C@@H](O[C@H]3O[C@H](CO)[C@@H](O)[C@H](O)[C@H]3O)[C@H](O)[C@H]2O)nc(SCCCCCCC)n1 [TSM-T7],–,–,better in maintaining the ligand binding ability of the receptor than DDM
~0.0035,5.5 ± 0.20,~5,best substrate binding activity,–,CCCCCCCCCCCCSc1nc(NC(CO[C@@H]2O[C@H](CO)[C@@H](O)[C@H](O)[C@H]2O)(CO[C@@H]2O[C@H](CO)[C@@H](O)[C@H](O)[C@H]2O)CO[C@@H]2O[C@H](CO)[C@@H](O)[C@H](O)[C@H]2O)nc(SCCCCCCCCCCCC)n1 [TTG-T12],–,–,better in maintaining the ligand binding ability of the receptor than DDM
